{"source": "ChEMBL document CHEMBL4364302", "about": "“4-Aminoquinoline-based compounds as antileishmanial agents that inhibit the energy metabolism of Leishmania” (Eur J Med Chem, 2019)", "key": {"THP-1": {"test_system": "THP-1", "assay": "Cytotoxicity against human THP1 cells assessed as cell viability measured after 72 hrs by MTT assay", "type": "cell-based", "conditions": "THP-1, 72 h"}, "[1]": {"assay": "Selectivity index, ratio of IC50 for human THP1 cells to IC50 for intracellular amastigote stage of Leishmania infantum LEM3049 isolate", "type": "toxicity, cell-based", "conditions": "read-out: Ratio IC50"}, "Leishmania braziliensis [2]": {"test_system": "Leishmania braziliensis", "assay": "Antileishmanial activity against intracellular amastigote stage of Leishmania braziliensis MHOM/IT/2006/ISS2848 assessed as reduction in parasite viability measured after 72 hrs by MTT assay", "type": "functional, organism-based", "conditions": "MHOM/IT/2006/ISS2848, 72 h"}, "Leishmania tropica [3]": {"test_system": "Leishmania tropica", "assay": "Antileishmanial activity against promastigote stage of Leishmania tropica MHOM/IT/2012/ISS3130 assessed as reduction in parasite viability measured after 72 hrs by MTT assay", "type": "functional, organism-based", "conditions": "MHOM/IT/2012/ISS3130, 72 h"}, "Leishmania infantum [4]": {"test_system": "Leishmania infantum", "assay": "Antileishmanial activity against miltefosine and paromomycin resistant promastigote stage of Leishmania infantum LEM2126 isolate measured after 72 hrs by MTT assay", "type": "functional, organism-based"}, "Leishmania tropica [5]": {"test_system": "Leishmania tropica", "assay": "Antileishmanial activity against intracellular amastigote stage of Leishmania tropica MHOM/IT/2012/ISS3130 assessed as reduction in parasite viability measured after 72 hrs by MTT assay", "type": "functional, organism-based", "conditions": "MHOM/IT/2012/ISS3130, 72 h"}, "Leishmania infantum [6]": {"test_system": "Leishmania infantum", "assay": "Antileishmanial activity against miltefosine resistant intracellular amastigote stage of Leishmania infantum LEM5159 isolate measured after 72 hrs by MTT assay", "type": "functional, organism-based"}, "[7]": {"assay": "Selectivity index, ratio of IC50 for human THP1 cells to IC50 for antimony resistant intracellular amastigote stage of Leishmania infantum LEM3323 isolate", "type": "toxicity, cell-based", "conditions": "read-out: Ratio IC50"}, "Leishmania infantum [8]": {"test_system": "Leishmania infantum", "assay": "Antileishmanial activity against promastigote stage of Leishmania infantum LEM3049 isolate measured after 72 hrs by MTT assay", "type": "functional, organism-based"}, "[9]": {"assay": "Selectivity index, ratio of IC50 for human HMEC1 cells to IC50 for intracellular amastigote stage of Leishmania infantum", "type": "toxicity, cell-based", "conditions": "read-out: Ratio IC50"}, "[10]": {"assay": "Selectivity index, ratio of IC50 for human THP1 cells to IC50 for miltefosine and paromomycin resistant intracellular amastigote stage of Leishmania infantum LEM2126 isolate", "type": "toxicity, cell-based", "conditions": "read-out: Ratio IC50"}, "Leishmania braziliensis [11]": {"test_system": "Leishmania braziliensis", "assay": "Antileishmanial activity against promastigote stage of Leishmania braziliensis MHOM/IT/2006/ISS2848 assessed as reduction in parasite viability measured after 72 hrs by MTT assay", "type": "functional, organism-based", "conditions": "MHOM/IT/2006/ISS2848, 72 h"}, "Leishmania infantum [12]": {"test_system": "Leishmania infantum", "assay": "Antileishmanial activity against antimony resistant intracellular amastigote stage of Leishmania infantum LEM3323 isolate measured after 72 hrs by MTT assay", "type": "functional, organism-based"}, "[13]": {"assay": "Selectivity index, ratio of IC50 for mouse BMDM cells to IC50 for intracellular amastigote stage of Leishmania infantum", "type": "toxicity, cell-based", "conditions": "read-out: Ratio IC50"}, "Leishmania infantum [14]": {"test_system": "Leishmania infantum", "assay": "Antileishmanial activity against antimony resistant promastigote stage of Leishmania infantum LEM3323 isolate measured after 72 hrs by MTT assay", "type": "functional, organism-based"}, "Leishmania infantum [15]": {"test_system": "Leishmania infantum", "assay": "Antileishmanial activity against intracellular amastigote stage of Leishmania infantum LEM3049 isolate measured after 72 hrs by MTT assay", "type": "functional, organism-based"}, "Leishmania infantum [16]": {"test_system": "Leishmania infantum", "assay": "Antileishmanial activity against promastigote stage of Leishmania infantum MHOM/TN/80/IPT1 assessed as reduction in parasite viability measured after 72 hrs by MTT assay", "type": "functional, organism-based", "conditions": "MHOM/TN/80/IPT1, 72 h"}, "BMDM": {"test_system": "BMDM", "assay": "Cytotoxicity against mouse BMDM cells assessed as cell viability measured after 72 hrs by MTT assay", "type": "cell-based"}, "HMEC-1": {"test_system": "HMEC-1", "assay": "Cytotoxicity against human HMEC1 cells assessed as cell viability measured after 72 hrs by MTT assay", "type": "cell-based", "conditions": "HMEC-1, 72 h"}, "[17]": {"assay": "Selectivity index, ratio of IC50 for human CFPAC-1 cells to IC50 for intracellular amastigote stage of Leishmania infantum", "type": "toxicity, cell-based", "conditions": "read-out: Ratio IC50"}, "Leishmania infantum [18]": {"test_system": "Leishmania infantum", "assay": "Antileishmanial activity against miltefosine resistant promastigote stage of Leishmania infantum LEM5159 isolate measured after 72 hrs by MTT assay", "type": "functional, organism-based"}, "[19]": {"assay": "Selectivity index, ratio of IC50 for human THP1 cells to IC50 for miltefosine resistant intracellular amastigote stage of Leishmania infantum LEM5159 isolate", "type": "toxicity, cell-based", "conditions": "read-out: Ratio IC50"}, "CFPAC-1": {"test_system": "CFPAC-1", "assay": "Cytotoxicity against human CFPAC-1 cells assessed as cell viability measured after 72 hrs by MTT assay", "type": "cell-based", "conditions": "CFPAC-1, 72 h"}, "Leishmania infantum [20]": {"test_system": "Leishmania infantum", "assay": "Antileishmanial activity against miltefosine and paromomycin resistant intracellular amastigote stage of Leishmania infantum LEM2126 isolate measured after 72 hrs by MTT assay", "type": "functional, organism-based"}, "Leishmania infantum [21]": {"test_system": "Leishmania infantum", "assay": "Antileishmanial activity against intracellular amastigote stage of Leishmania infantum MHOM/TN/80/IPT1 assessed as reduction in parasite viability measured after 72 hrs by MTT assay", "type": "functional, organism-based", "conditions": "MHOM/TN/80/IPT1, 72 h"}, "[22]": {"assay": "Selectivity index, ratio of IC50 for human THP1 cells to IC50 for intracellular amastigote stage of Leishmania infantum", "type": "toxicity, cell-based", "conditions": "read-out: Ratio IC50"}}}
{"smiles": "C[C@@H]1[C@H](O)[C@@H](C)/C=C/C=C/C=C/C=C/C=C/C=C/C=C/[C@H](O[C@@H]2O[C@H](C)[C@@H](O)[C@H](N)[C@@H]2O)C[C@@H]2O[C@](O)(C[C@@H](O)C[C@@H](O)[C@H](O)CC[C@@H](O)C[C@@H](O)CC(=O)O[C@H]1C)C[C@H](O)[C@H]2C(=O)O", "note": "[AMPHOTERICIN B]", "values": [{"measurement": "IC50", "setting": "THP-1", "result": "> 10000", "unit": "nM"}, {"measurement": "selectivity ratio", "setting": "[1]", "result": 164}, {"measurement": "IC50", "setting": "Leishmania braziliensis [2]", "result": 200, "unit": "nM"}, {"measurement": "IC50", "setting": "Leishmania tropica [3]; read-out: IC50", "result": 120, "unit": "nM"}, {"measurement": "IC50", "setting": "Leishmania infantum [4]", "result": 100, "unit": "nM"}, {"measurement": "IC50", "setting": "Leishmania tropica [5]", "result": 160, "unit": "nM"}, {"measurement": "IC50", "setting": "Leishmania infantum [6]", "result": 160, "unit": "nM"}, {"measurement": "selectivity ratio", "setting": "[7]", "result": 155}, {"measurement": "IC50", "setting": "Leishmania infantum [8]", "result": 60, "unit": "nM"}, {"measurement": "selectivity ratio", "setting": "[9]", "result": "> 50"}, {"measurement": "selectivity ratio", "setting": "[10]", "result": 174}, {"measurement": "IC50", "setting": "Leishmania braziliensis [11]", "result": 183, "unit": "nM"}, {"measurement": "IC50", "setting": "Leishmania infantum [12]", "result": 180, "unit": "nM"}, {"measurement": "selectivity ratio", "setting": "[13]", "result": "> 50"}, {"measurement": "IC50", "setting": "Leishmania infantum [14]", "result": 70, "unit": "nM"}, {"measurement": "IC50", "setting": "Leishmania infantum [15]", "result": 170, "unit": "nM"}, {"measurement": "IC50", "setting": "Leishmania infantum [16]", "result": "90 to 150", "unit": "nM"}, {"measurement": "IC50", "setting": "BMDM", "result": "> 10000", "unit": "nM"}, {"measurement": "IC50", "setting": "HMEC-1", "result": "> 10000", "unit": "nM"}, {"measurement": "selectivity ratio", "setting": "[17]", "result": "> 50"}, {"measurement": "IC50", "setting": "Leishmania infantum [18]", "result": 50, "unit": "nM"}, {"measurement": "selectivity ratio", "setting": "[19]", "result": 174}, {"measurement": "IC50", "setting": "CFPAC-1", "result": "> 10000", "unit": "nM"}, {"measurement": "IC50", "setting": "Leishmania infantum [20]", "result": 160, "unit": "nM"}, {"measurement": "IC50", "setting": "Leishmania infantum [21]", "result": 180, "unit": "nM"}, {"measurement": "selectivity ratio", "setting": "[22]", "result": "> 50"}]}
{"smiles": "CCCCCCCCCCCCCCCCOP(=O)([O-])OCC[N+](C)(C)C", "note": "[MILTEFOSINE]", "values": [{"measurement": "IC50", "setting": "Leishmania braziliensis [2]", "result": 890, "unit": "nM"}, {"measurement": "IC50", "setting": "Leishmania tropica [3]", "result": 10400, "unit": "nM"}, {"measurement": "IC50", "setting": "Leishmania tropica [5]", "result": 1150, "unit": "nM"}, {"measurement": "IC50", "setting": "Leishmania braziliensis [11]", "result": 7590, "unit": "nM"}, {"measurement": "IC50", "setting": "Leishmania infantum [16]", "result": 1430, "unit": "nM"}]}
{"smiles": "NC[C@@H]1O[C@H](O[C@H]2[C@@H](O)[C@H](O[C@@H]3[C@@H](O)[C@H](N)C[C@H](N)[C@H]3O[C@H]3O[C@H](CO)[C@@H](O)[C@H](O)[C@H]3N)O[C@@H]2CO)[C@H](N)[C@@H](O)[C@@H]1O", "note": "[PAROMOMYCIN]", "values": [{"measurement": "IC50", "setting": "Leishmania infantum [16]", "result": 427000, "unit": "nM"}]}
